Results on two compounds are retold here after patent US20260345584A1, “METHODS AND PHARMACEUTICAL COMPOSITIONS FOR TREATING CHEMOTHERAPY-INDUCED PERIPHERAL NEUROPATHY WITH EG5 INHIBITORS” (UNIVERSITY OF MIAMI, priority 2023, published 2026).

Data set [1] has as its system mouse DRG neurons. As to conditions: cultured mouse DRG neurons (Haque et al., 2004); cited from earlier work.
The subject of data set [2] is CIPN caused by bortezomib. To be noted: mice (Bobylev et al., 2017); cited from earlier work.
Data set [3] deals with cutaneous sensory axons. In words: Axon branch number in caudal fin (acetylated tubulin staining). It counts as in vivo, zebrafish. The protocol:
(§1) The stock solution was divided into 20-30 μl aliquots and stored at −20 °C until use (maximal 6 months). Immediately prior to use, paclitaxel was diluted in Ringer's solution and added to dechorionated larval zebrafish. The larval fish were placed individually or in small groups into wells of a 12-well plate containing the treatment solutions. The control group was 0.05% DMSO. Plates were incubated at 28.5 °C and protected from light. Treatment lengths are indicated in the Drawings, Description of the Drawings, and Examples where appropriate. […] EMD534085, Eg5 inhibitor (MedChemExpress, Cat. No. HY-15000) was diluted in 100% DMSO to make a 10 mM stock solution and stored at −20 °C. […] The solutions were exchanged every 48 hr.
(§2) Larval fish were transferred into […] glass vials and fixed in 4% paraformaldehyde (PFA)/1× Phosphate-buffered saline (PBS) for 1.5 hr at room temperature, with gentle rocking. Following a 5-minute incubation in 1×PBS+0.1% Tween-20 (PBST), zebrafish were permeabilized in 1×PBS+0.1% Triton X-100 for 10-30 min. Larval fish were transferred into 2 ml reaction tubes and incubated in blocking buffer (1×PBST+5% BSA) for 30 min at room temperature, with rocking. Larval fish were further incubated overnight in antibody solution (Millipore Sigma, Cat. No. AB3201, 1:300 rabbit anti-GluTub; Sigma, Cat No. T6793, 1:500 mouse anti-acetylated tubulin) in blocking buffer at 4 °C, on a rotator. The next morning, larval fish were transferred into 6-well plates and washed 4×15 min in 1×PBST at room temperature, with rocking. This was followed by incubation in secondary antibody (goat anti-rabbit Cy5, Abcam, Cat. No. ab97077; goat anti-mouse Cy3, Abcam, Cat. No. ab97035) and 1:10,000 Hoechst 33342 (ThermoFisher Scientific, Cat. No. 62249, 20 mM solution) in blocking buffer for 1 hr at room temperature, with rocking. Fish were covered to avoid bleaching. Fish were washed for 4×15 min in 1×PBST at room temperature, with rocking, and immediately mounted for imaging on glass bottom petri dishes (Spectrum Laboratory Products, Cat. No. 750-10403-UE) using 1% agarose (Thermo Fisher Scientific, Cat. No. 16520050). A 1:200 dilution was used for mouse alpha-tubulin antibody (Proteintech, Cat. No. 66031-1) and a 1:1,000 dilution of donkey anti-mouse IgG Alexa488 (ThermoFisher Scientific, Cat. No. A-21202) for secondary detection. For Nox1 immunostaining, a 1:300 dilution of primary antibody (Anti-NOX1 Rabbit Polyclonal Antibody, Avantar, Cat. No. 102164-796) and a 1:1,000 dilution of secondary goat anti-rabbit Cy2 (Abcam, Cat. No. ab6940) antibody was used. Eg5 antibody (Abcam, Cat. No. 61199) was used at a 1:100 and secondary goat anti-rabbit Cy2 (Abcam, Cat. No. ab6940) at 1:1,000 dilution.
Axon branch number quantifications were performed by drawing a 50 μm line across the dorsal, medial, and ventral caudal fin edge region at a distance of 100 μm parallel to the fin edge (which was determined to be the most reliable region to quantify distal branch numbers). Axons traversing this line were counted and averaged per treatment group. Axonal fluorescence measurements were taken using the Imaris Spots function by manually placing spots along the axon and using the fluorescence intensity profile measurements MatLab tool.
Stretching was performed after 96 hr treatment, followed by 2 hr post-stretch fixation, and staining for detection of acetylated tubulin in axons.
To further validate Eg5 as the pharmacological target of EMD534085 in axon regeneration, zebrafish injected with kif11 CRISPR oligo were also analyzed.

Data set [4] concerns microtubule detyrosination in keratinocytes. In words: GluTub immunofluorescence of detyrosinated microtubules in zebrafish caudal fin keratinocytes. Type of data set: in vivo. To be noted: 96 hr. The protocol:
as §1
Larval fish were transferred into […] glass vials and fixed in 4% paraformaldehyde (PFA)/1× Phosphate-buffered saline (PBS) for 1.5 hr at room temperature, with gentle rocking. Following a 5-minute incubation in 1×PBS+0.1% Tween-20 (PBST), zebrafish were permeabilized in 1×PBS+0.1% Triton X-100 for 10-30 min. Larval fish were transferred into 2 ml reaction tubes and incubated in blocking buffer (1×PBST+5% BSA) for 30 min at room temperature, with rocking. Larval fish were further incubated overnight in antibody solution (Millipore Sigma, Cat. No. AB3201, 1:300 rabbit anti-GluTub; Sigma, Cat No. T6793, 1:500 mouse anti-acetylated tubulin) in blocking buffer at 4 °C, on a rotator. The next morning, larval fish were transferred into 6-well plates and washed 4×15 min in 1×PBST at room temperature, with rocking. This was followed by incubation in secondary antibody (goat anti-rabbit Cy5, Abcam, Cat. No. ab97077; goat anti-mouse Cy3, Abcam, Cat. No. ab97035) and 1:10,000 Hoechst 33342 (ThermoFisher Scientific, Cat. No. 62249, 20 mM solution) in blocking buffer for 1 hr at room temperature, with rocking. Fish were covered to avoid bleaching. […]
Fluorescence intensities were measured using the Imaris MATLAB plugin or Fiji. A line was typically placed over the region of interest and the fluorescence automatically quantified. The values were normalized to nuclear (Hoechst33342) fluorescence intensities within the same fish and region to obtain an intensity ratio.
Stabilized microtubules undergo a modification whereby the terminal tyrosine residue was removed, leading to detyrosination (dMT) (Roll-Mecak et al., 2020, Developmental cell 54: 7-20), which was associated with particularly long-term stabilized microtubule populations (Khawaja et al., 1988, The Journal of cell biology 106: 141-149). Exposure of the penultimate glutamate residue can be detected using a GluTub antibody. […]

Data set [5] deals with Eg5. In words: Eg5 immunofluorescence in zebrafish caudal fin. It counts as in vivo. As to conditions: transient kif11 CRISPR, exon 5. The protocol: as §1
Larval fish were transferred into […] glass vials and fixed in 4% paraformaldehyde (PFA)/1× Phosphate-buffered saline (PBS) for 1.5 hr at room temperature, with gentle rocking. Following a 5-minute incubation in 1×PBS+0.1% Tween-20 (PBST), zebrafish were permeabilized in 1×PBS+0.1% Triton X-100 for 10-30 min. Larval fish were transferred into 2 ml reaction tubes and incubated in blocking buffer (1×PBST+5% BSA) for 30 min at room temperature, with rocking. […]

The subject of data set [6] is caudal fin keratinocytes (dfMTs). In words: dfMT formation (detyrosinated fasciculated looped microtubules) in zebrafish caudal fin keratinocytes. Type of data set: in vivo. How it is done:
as §1, §2
CRISPR oligos targeting kif11 were designed using the IDT CRISPR design tool (https://www.idtdna.com/site/order/designtool/index/CRISPR_CUSTOM). The oligo (5′-[…] (SEQ ID NO: 21) was designed to anneal within exon 5 of 23 exons total in zebrafish kif11 with expected mutations ~ position 270 bp in the sequenced region using the following primers for PCR amplification: Fwd 5′-[…]-3′ (SEQ ID NO: 22) and Rev 5′-[…]-3′ (SEQ ID NO: 23). The forward primer was used for sequencing and yielded deletions in transiently injected embryos, as shown in example below in which single zebrafish were sequenced (FIG. 10).
The CRISPR oligo was injected using the Alt-R system (IDT, https://www.idtdna.com/pages/technology/crispr/crispr-genome-editing/Alt-R-systems/cas9), which has provided highly reliable and efficient zebrafish knockout results as used herein. The IDT-recommended protocol (below) was used for CRISPR oligo preparations. Fertilized eggs were injected ~15 minutes post fertilization with CRISPR oligos to ensure maximal efficiency.
Cell counting in the caudal fin was performed in three 100 μm^2 boxes in the dorsal, medial and ventral caudal fin (~100 μm from the edge). […]

With `CCOC(=O)C1=C(C)NC(=S)NC1c1cccc(O)c1` (centres unmarked) [monastrol], the neurite outgrowth result in data set [1] is given as “promotes neurite outgrowth”. In data set [2], the “effect on CIPN caused by bortezomib” value is recorded as “shown to alleviate CIPN caused by bortezomib”.
“kif11 CRISPR: CRISPR oligo (5′-AGGTGACCGATCACCCAATG (SEQ ID NO: 21)) targeting exon 5 of zebrafish kif11, injected as Cas9 ribonucleoprotein (injected as Cas9 ribonucleoprotein, chemistry not given here)”: the axon branch number in data set [3] (kif11-CRISPR+22 μM paclitaxel) is reported as 12.83±0.96 branches/50 μm; in data set [3] (kif11-CRISPR+vehicle), 12.08±0.68 branches/50 μm. The results for the “normalized detyrosination fluorescence intensity” value in data set [4] (kif11 CRISPR + paclitaxel) and in data set [4] (kif11 CRISPR+vehicle) were 0.85±0.11 and 1.12±0.2, respectively. Further, the Eg5 protein expression entry in data set [5] was “eliminated Eg5 protein expression”. The “number of keratinocytes per animal with dfMTs” value in data set [6] (kif11 CRISPR+22 μM paclitaxel) is 0.29±0.16; in data set [6] (kif11 CRISPR+vehicle) it was 0±0. Besides, the “percent animals with dfMTs” value in data set [6] (kif11 CRISPR+22 μM paclitaxel) came to 25%; in data set [6] (kif11 CRISPR+vehicle), 0%.
